Laboratory results from US20220257610A1, “Enhancing drug activity through accentuated buccal/sublingual administration” (priority 2019, published 2022).
Where two headings read alike, the source gives them in different places.

How the values were obtained:
[1] = Comparative dosage study, sleep times in humans; type: in vivo; conditions: much lower dose with adjuvant, compared with oral
Excerpt: The best method for carrying out the invention: Alprazolam and adjuvant are formulated into sublingual tablets/sprays by conventional methods and administered and sleep times recorded for humans as well as animals.

[2] = same or similar dose with permeability enhancers, compared with oral
Method: The clinical trials were conducted in two parts. The first part consisted of the following stages.
Further trials were carried out to determine the duration of action glipizide and adjuvant combination.
To test the efficacy of adjuvant we compared the efficacy of 5 mg of sub-lingual glipizide with adjuvant, with 5 mg of sublingual glipizide without adjuvant. […] Finally tests were carried out to determine whether the adjuvant used participates in receptor binding process. Keeping the amount of glipizide at 5 mg the quantity of adjuvant were doubled.

Compound | increase in effect [1] [%] | increase in effect [2] [%]
Cc1nnc2n1-c1ccc(Cl)cc1C(c1ccccc1)=NC2 [alprazolam] | 200 | 
Cc1cnc(C(=O)NCCc2ccc(S(=O)(=O)NC(=O)NC3CCCCC3)cc2)cn1 [glipizide] |  | 3200
